One series concerns PTZ-induced clonus. The series can be described thus: Pentylenetetrazole (PTZ, 35 mg/kg s.c.)-induced clonic convulsions. The class given is in vivo. Conditions: rats; for PTZ Clonus to Criteria 1: MED producing maximal protection (0% seizures); for PTZ Clonus Potency (MED): lowest dose with statistically significant protection; for PTZ Clonus Potency (MED) / protection against PTZ-induced clonus: PTZ 35 mg/kg s.c. On the procedure:
After the inverted screen test, the rats were dosed with pentylenetetrazole (PTZ)(35 mg/kg, s.c.) in a volume of 1 ml/kg and placed in an observation cage (40.6×20.3×15.2 cm) with a floor containing […] of wood chip bedding material. PTZ dose was determined to be ˜EC97 for producing clonic convulsions.

For a further series, the system named is 6 Hz-induced seizures. The experiment in a line: 6 Hz (44 mA) seizure model. Conditions: mice; for Number protected/number tested: 2 hr post dosing. Type of series: in vivo. The source says:
This seizure model is utilized to screen for drugs that might […] by other screening approaches. For example, the highly used anticonvulsant leviteracetam was effective in this test but not in the pentylenetetrazole assay. Adult, male mice were subjected to 6 Hz stimulation at 44 mA as originally described by Barton et al. (Epilepsy Res. 2001; 47:217-27) and conducted per protocol of the NTH Anticonvulsant Screening Program (available online from the National Institute of Neurological Disorders and Stroke—6 Hz 44 mA Psychomotor Seizure Model, Mouse). Briefly, a mouse was dosed with KRM-II-81, p.o., and 2 hr later given 6 Hz stimulation for 3 sec delivered through corneal electrodes at 44 mA and observed for the presence or absence of seizure activity. A separate group of mice was dosed with higher doses of KRM-II-81 and observed for potential deficits in motor performance and overt signs of toxicity at 4 hr post dosing.

The subject of another series is rat E18 cortical neurons. The series can be described thus: Microelectrode array recording of cultured cortical neuron network. Type of series: cell-based. Conditions: 3 μM. How it is done: Meastro 12 well plates (Axion Biosystems, Atlanta, Ga.) were treated with a solution of 0.1% polyethylenimine for 2-4 hours, rinsed with sterile H2O and let dry overnight. Prior to plating of neurons, the MEAs were treated with solution of 20 μg/ml laminin for a minimum of 1 hour.
Cortices isolated from […] (MEA) were obtained from BrainBits LLC, (Springfield, Ill.) and digested enzymatically with TrypLE Express (Gibco), After 15 minutes of digestion, the tissue was mechanically dissociated with a series of sterile fire-polished glass pipettes of decreasing diameter. The dissociated neurons were plated directly onto substrate-integrated MEA plates and incubated in Nb Active1 (Brainbits LLC, Springfield, Ill.) supplemented with 5% dialyzed fetal bovine serum, 0.25% Glutamax (Gibco). Cell cultures were maintained in tissue incubator (37° C., 6% CO2) and fed twice a week by exchanging half of the medium. The experiments were performed on DIV 19-25 thus allowing partial maturation of the neurons. Prior to the experiment, the cell culture media was replaced with external buffer containing: 129 mM NaCl, 5 mM KCl, 2 mM CaCl, 1 mM […], 10 mM HEPES, 10 mM glucose. To achieve hyper-excitation the external buffer was modified by removal of magnesium or by addition of 1 mM 4aminopyridine (4-AP).
The recordings were obtained at 37° C. using Meastro System with integrated AxIS 2.3 analysis software (Axion Biosystems, Atlanta, Ga.). Channels were sampled simultaneously with a gain of 1200× and a sampling rate of 12.5 kHz/channel. On-line spike detection was done with the AXIS adaptive spike detector. For recordings, a Butterworth band-pass filter (with a high-pass cutoff of 75 Hz and low-pass cutoff of 4000 Hz) was applied along with a variable threshold spike detector set at 7× standard deviation of the rms-noise on each channel. Only wells that did show spontaneous activity (more than 0.3 Hz) on the day planned for the experiment were treated with a compound. Burst was defined as a minimum of 5 spikes occurring with an interspike interval of less than 100 ms. A minimum of one burst per minute was required for bursting analysis. Compounds were added by manual pipetting and the activity was sampled for six minutes prior and post compound addition.
The data were normalized to baseline activity and reported as mean±standard error of the mean (SEM). For single treatment a single sample t-test was used. To compare between group effects, analysis of variance (ANOVA) with Dunnett's multiple comparison test were utilized; P<0.05 was considered significant.

A short description of series [1]: Unbound plasma and brain concentrations after i.p. dosing. The note with it: for Unbound brain concentration / Unbound plasma concentration: male Sprague-Dawley rats, n=3, mean ± S.E.M. The class given is in vivo, rats. The source says: (Table 4). Using these unbound drug concentrations, the PI based on drug levels in plasma was 3 and that based upon brain drug levels was 3.8.

Series [2] relates to human (α2), or rat (α1, α3, α5, γ2L, β3) GABAA receptor subunits. The series can be described thus: Whole-cell patch-clamp GABA current responses in transfected HEK-293T cells. The class given is cell-based. The note with it: GABA EC3-5, drug concentration 100 nM. How it is done: Human […] (HEK-293T) were transiently transfected with full-length cDNAs encoding human (α2), or rat (α1, α3, α5, γ2L, β3) GABAA receptor subunits using calcium phosphate precipitation. Positively transfected cells were isolated by utilizing co-transfection of a plasmid encoding a surface antibody (pHook™-1, Invitrogen). 20-52 hours following transfection, cells were mixed with magnetic beads coated with antigen specific for the pHook antibody, isolated with a magnetic stand, and then plated onto coverslips and used for patch-clamp recordings 18-28 hours later.
Current responses to GABA were recorded in the whole-cell configuration, with cells voltage-clamped at −50 mV. The bath solution contained (in mM): 142 NaCl, 8.1 KCl, 6 MgCl2, 1 CaCl2), and 10 HEPES (4-(2-hydroxyethyl)-1-piperazineethanesulfonic acid) with pH=7.4 and osmolarity adjusted to 295-305 mOsm. The electrode (internal) solution consisted of (in mM); 153 KCl, 1 MgCl2, 5 K-EGTA (ethylene glycol-bis (β-aminoethyl ether N,N,N′N′-tetraacetate)), and 10 HEPES with pH=7.4 and osmolarity adjusted to 295-305 mOsm. […] Currents were recorded with an Axon 200B (Foster City, Calif.) patch clamp amplifier. […] Data were analyzed by two-way ANOVA followed by post-hoc Tukey's multiple comparison test. […]
(In patch-clamp work, channel activity is measured electrically.)

For the compound `C#Cc1ccc2c(c1)C(c1ccccc1)=NCc1c(-c3cnco3)ncn1-2` [KRM-II-82, 5-(8-ethynyl-6-phenyl-4H-benzo[f]imidazo[1,5-a][1,4]diazepin-3-yl)oxazole], in the series with PTZ-induced clonus, the “PTZ Clonus to Criteria 1” value turned out to be 30 mg/kg, the “PTZ Clonus Potency (MED)” value stood at 10 mg/kg and the “protection against PTZ-induced clonus” value is on record as “dose-dependently suppressed”.
Regarding `C#Cc1ccc2c(c1)C(c1ccccn1)=NCc1c(-c3cnco3)ncn1-2` [KRM-II-81, 5-(8-ethynyl-6-(pyridin-2-yl)-4H-benzo[f]imidazo[1,5-a][1,4]diazepin-3-yl)oxazole], the Number protected/number tested in the series on 6 Hz-induced seizures (dose 10, p.o.) is on record as 0/8; with 6 Hz-induced seizures (dose 25, p.o.) it was 3/8; in the series on 6 Hz-induced seizures (dose 50, p.o.), 7/8. Also, the “6 Hz Potency (MED)” value in the series on 6 Hz-induced seizures (p.o., doses 10-50 mg/kg) was 50 mg/kg. In addition, the “PTZ Clonus to Criteria 1” value with PTZ-induced clonus is 30 mg/kg. In addition, the “PTZ Clonus Potency (MED)” value in the series on PTZ-induced clonus came to 30 mg/kg. Further, the “protection against PTZ-induced clonus” value in the series on PTZ-induced clonus was “fully prevented”. In addition, the frequency of bursting is 50.9±8.8 % of control in the series with rat E18 cortical neurons (hyper-excited by 1 mM 4AP, n=6, mean±SEM); 54.8±7.1 % of control in the series on rat E18 cortical neurons (hyper-excited by removal of magnesium, n=5, mean±SEM); “no significant effect” in the series with rat E18 cortical neurons (normal magnesium, n=7); “no significant effect” with rat E18 cortical neurons (reduced magnesium (0.1 mM Mg++), n=4). Further, the frequency of spiking in the series with rat E18 cortical neurons (hyper-excited by 1 mM 4AP, n=7, mean±SEM) is 50.5±7.5 % of control; in the series with rat E18 cortical neurons (hyper-excited by removal of magnesium, n=7, mean±SEM), 62.2±3.8 % of control; in the series on rat E18 cortical neurons (normal magnesium external solution, n=7), “no significant effect”; in the series with rat E18 cortical neurons (reduced magnesium (0.1 mM Mg++), n=4, p>0.05), “small depression of spiking”. For the same compound, the Unbound brain concentration in series [1] (17.3 mg/kg i.p.) came out at 1.64 ± 0.141 µM; in series [1] (121 mg/kg i.p.), 6.25 ± 1.652 µM. Further, the values for the Unbound plasma concentration in series [1] (17.3 mg/kg i.p.) and in series [1] (121 mg/kg i.p.) were 3.29 ± 0.107 µM and 10 ± 2.147 µM, respectively. The “121/17.3 Ratio, brain” value in series [1] (ratio of unbound brain concentrations at 121 and 17.3 mg/kg i.p.) was 3.81. For the same compound, in series [1] (ratio of unbound plasma concentrations at 121 and 17.3 mg/kg i.p.), the “121/17.3 Ratio, plasma” value was found to be 3.04. In series [2], the “selectivity for α2 and α3 over α1” value is “selective for α2 and α 3 over α1”.

The values above are taken from US20200316087A1, “NOVEL COMBINATION THERAPY FOR ANXIETY DISORDERS, EPILEPSY, AND PAIN” (priority 2017, published 2020).
